# Data from patent publication US20250243190A1, “NEW DEUTERATED RORGAMMA/RORGAMMAT INVERSE AGONISTS” (IMMUNIC AG, priority 2022, published 2025).
# What was measured:
# [1] = target: T1, RORγt (Homo sapiens, UniProt P51449); test: Indigo Biosciences Human RAR-related Orphan Receptor, Gamma Reporter Assay (in vitro inhibition of RORγt); assay type: cell-based; details: RORγt reporter cells, luciferase readout, 22-24 h incubation; read-out: IC50 range
# T1 sequence (P51449 269-508 limits assumed): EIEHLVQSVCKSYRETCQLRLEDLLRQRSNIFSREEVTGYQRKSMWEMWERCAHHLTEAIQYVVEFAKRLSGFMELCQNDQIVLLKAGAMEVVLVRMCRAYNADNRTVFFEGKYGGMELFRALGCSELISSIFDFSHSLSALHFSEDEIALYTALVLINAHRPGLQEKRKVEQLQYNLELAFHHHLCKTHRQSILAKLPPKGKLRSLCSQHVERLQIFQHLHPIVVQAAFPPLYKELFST
# Protocol: The in vitro inhibition of RORγt was measured using Indigo Biosciences Human RAR-related Orphan Receptor, Gamma Reporter Assay System (Product #IB304001-32) as described in the technical manual. In brief, 200 μL of Reporter Cells is dispensed into wells of the assay plate and preincubated for 4-6 h. Following the pre-incubation period, culture media are discarded and 200 µL/well of the prepared 1×-concentration treatment media are added. Following 22-24 h incubation, treatment media are discarded and Luciferase Detection Reagent is added. The intensity of light emission (in units of ‘Relative Light Units’; RLU) from each assay well is quantified using a plate-reading luminometer. Average values of RLU were determined for each treatment concentration. Non-linear regression analyses were performed and IC50 values determined using GraphPad Prism software. Provided inverse-agonists ursolic acid served as positive control.
# [2] = tested on: SARS-CoV-2; test: Antiviral activity on SARS-CoV-2, viral replication (YFP) assay; assay type: cell-based; details: Severe acute respiratory syndrome coronavirus 2, read-out: EC50 range
# Excerpt: (§1) The assay for viral replication (YFP) and the cell viability assay has been described in general in Pathogens 2021; 10:1076 and applied to compounds of the present invention furnished the following results: […]
# [3] = Cell viability assay accompanying the SARS-CoV-2 assay; assay type: cell-based; details: cell viability assay of the SARS-CoV-2 test
# Excerpt: as §1
# [4] = Mouse pharmacokinetics, oral or intravenous cassette dosing; assay type: in vivo, mice (C57BL/6J); details: C57BL/6J, whole blood, 3 female mice, 5 mg/kg oral cassette, sampling 0.25-8 h
# Protocol: The pharmacokinetics of the compounds of the present invention was evaluated in 3 male and 3 female mice (C57BL/6J, 8 week old) after oral or intravenous cassette dosing to assess the oral bioavailability. Dose was 5 mg/kg (oral) and 1 mg/kg (intravenous), application volume was 5 mL/kg (oral) and 0.5 mL/kg (intravenous), vehicle was 5% solutol, 95% NaCl solution (at 0.9% saline concentration) for oral and 5% solutol, 5% Ethanol, 90% NaCl solution (at 0.9% saline concentration) for intravenous. At each designated time point (0.25, 0.5, 1, 2, 4, 8 and 24 h after dosing), 20 μL whole blood were collected from the tail vein into Li-heparin tubes, frozen on dry ice within 1-2 minutes of sampling and stored at −20° C. until processed for LC-MS analysis. The obtained data is as follows:
# (§2) The pharmacokinetics of additional compounds of the present invention was evaluated in 3 female mice (C57BL/6J, 8 week old) after oral cassette dosing. Dose was 5 mg/kg, application volume was 5 mL/kg, vehicle was 5% solutol, 95% NaCl solution (at 0.9% saline concentration). At each designated time point (0.5, 1, 2, 4, 8 and 24 h after dosing), 20 μL whole blood were collected from the tail vein into Li-heparin tubes, frozen on dry ice within 1-2 minutes of sampling and stored at −20° C. until processed for LC-MS analysis. The obtained data is as follows:
# as §2, with “(0.25, 0.5,” for “(0.5,”, “4 and” for “4,”, “8” for “8 and 24”, “analysis.” for “analysis. The obtained data is as follows:”
SMILES,IC50 [1] [nM],other results
[2H][C@]1(n2ncc(-c3onc(-c4ccccc4Cl)c3-c3ncccn3)c2C(F)(F)F)C[C@@](C)(O)C1 [2-2/1],10 to 100,–
[2H][C@]1(n2ncc(-c3onc(-c4c(F)cccc4Cl)c3-c3ncccn3)c2C(F)F)C[C@@](C)(O)C1 [4-2/1],10 to 100,–
[2H]c1c([2H])c(F)c(-c2noc(-c3cnn(C([2H])([2H])CC(C)(C)O)c3C(F)(F)F)c2-c2ncccn2)c(Cl)c1[2H] [5/2],< 10,–
[2H]C([2H])(CC(C)(C)O)n1ncc(-c2onc(-c3c(F)cccc3Cl)c2-c2ncccn2)c1COC [10/2],100 to 1000,EC50 [2]: 1000 to 50000 nM; CC50 [3]: > 100000 nM
[2H]C([2H])(CC(C)(C)O)n1ncc(-c2onc(-c3c(F)cccc3Cl)c2-c2ncccn2)c1C1CC1 [10/3],100 to 1000,EC50 [2]: 100 to 1000 nM; CC50 [3]: > 100000 nM
[2H]C([2H])(OC1COC1)c1c(-c2c(F)cccc2Cl)noc1-c1cnn(-c2cccc(Cl)c2)c1C(F)(F)F [110/2],10 to 100,–
[2H]C([2H])(OCC)c1c(-c2c(F)cccc2Cl)noc1-c1cnn(-c2cccc(Cl)c2)c1C(F)(F)F [110/3],10 to 100,–
[2H]C([2H])(OC(C)C)c1c(-c2c(F)cc(F)cc2Cl)noc1-c1cnn(-c2cccc(Cl)c2)c1C(F)(F)F [111/2],100 to 1000,–
[2H]C([2H])(OC1CC1)c1c(-c2c(F)cccc2Cl)noc1-c1cnn(-c2cc(F)cc(Cl)c2)c1C(F)(F)F [111/3],10 to 100,–
[2H]C([2H])(OC(C)C)c1c(-c2c(F)cccc2Cl)noc1-c1cnn(-c2cc(F)cc(Cl)c2)c1C(F)(F)F [111/4],10 to 100,–
"[2H]C([2H])([C@H](C)O)n1ncc(-c2onc(-c3c(F)cccc3Cl)c2-c2ncccn2)c1C(F)(F)F [Example 1, (S)-1-(4-(3-(2-Chloro-6-fluorophenyl)-4-(pyrimidin-2-yl)isoxazol-5-yl)-5-(trifluoromethyl)-1H-pyrazol-1-yl)propan-1,1-d2-2-ol]",10 to 100,EC50 [2]: < 100 nM; CC50 [3]: 22000 nM
"[2H][C@]1(n2ncc(-c3onc(-c4c(F)cccc4Cl)c3-c3ncccn3)c2C(F)(F)F)C[C@](C)(O)C1 [Example 2-1, (1r,3r)-3-(4-(3-(2-Chloro-6-fluorophenyl)-4-(pyrimidin-2-yl)isoxazol-5-yl)-5-(trifluoro-methyl)-1H-pyrazol-1-yl)-1-methylcyclobutan-3-d-1-ol]",100 to 1000,–
[2H][C@]1(n2ncc(-c3onc(-c4ccccc4Cl)c3-c3ncccn3)c2C(F)(F)F)C[C@](C)(O)C1 [Example 2-1/1],100 to 1000,–
"[2H][C@]1(n2ncc(-c3onc(-c4c(F)cccc4Cl)c3-c3ncccn3)c2C(F)(F)F)C[C@@](C)(O)C1 [Example 2-2, (1s,3s)-3-(4-(3-(2-chloro-6-fluorophenyl)-4-(pyrimidin-2-yl)isoxazol-5-yl)-5-(trifluoromethyl)-1H-pyrazol-1-yl)-1-methylcyclobutan-3-d-1-ol]",10 to 100,–
[2H]C([2H])(CC(C)(C)O)n1ncc(-c2onc(-c3c(F)cccc3Cl)c2-c2nccs2)c1C(F)(F)F [Example 3-1],< 10,EC50 [2]: < 100 nM; CC50 [3]: 17000 nM
[2H]c1nc(-c2c(-c3c(F)cccc3Cl)noc2-c2cnn(C([2H])([2H])CC(C)(C)O)c2C(F)(F)F)sc1[2H] [Example 3-2],< 10,–
[2H]c1nc(-c2c(-c3c(F)cccc3Cl)noc2-c2cnn(C([2H])([2H])CC(C)(C)O)c2C(F)(F)F)nc([2H])c1[2H] [Example 3-3],10 to 100,–
"[2H]C([2H])(CC(C)(C)O)n1ncc(-c2onc(-c3c(F)cccc3Cl)c2-c2ncccn2)c1C(F)F [Example 4, 4-(4-(3-(2-Chloro-6-fluorophenyl)-4-(pyrimidin-2-yl)isoxazol-5-yl)-5-(difluoromethyl)-1H-pyrazol-1-yl)-2-methylbutan-4,4-d2-2-ol]",10 to 100,EC50 [2]: < 100 nM; CC50 [3]: > 100000 nM
[2H][C@]1(n2ncc(-c3onc(-c4c(F)cccc4Cl)c3-c3ncccn3)c2C(F)F)C[C@](C)(O)C1 [Example 4-1/1],100 to 1000,–
"[2H]C([2H])(CC(C)(C)O)n1ncc(-c2onc(-c3c(F)cc(OC)cc3Cl)c2-c2ncccn2)c1C(F)(F)F [Example 5, 4-(4-(3-(2-Chloro-6-fluoro-4-methoxyphenyl)-4-(pyrimidin-2-yl)isoxazol-5-yl)-5-(trifluoro-methyl)-1H-pyrazol-1-yl)-2-methylbutan-4,4-d2-2-ol]",100 to 1000,EC50 [2]: 100 to 1000 nM; CC50 [3]: > 100000 nM
"[2H]C([2H])(CC(C)(C)O)n1ncc(-c2onc(-c3c(F)cc(OCCN4CCOCC4)cc3Cl)c2-c2ncccn2)c1C(F)(F)F [Example 6, 4-(4-(3-(2-Chloro-6-fluoro-4-(2-morpholinoethoxy)phenyl)-4-(pyrimidin-2-yl)isoxazol-5-yl)-5-(trifluoromethyl)-1H-pyrazol-1-yl)-2-methylbutan-4,4-d2-2-ol]",100 to 1000,EC50 [2]: 100 to 1000 nM; CC50 [3]: 27000 nM
[2H]C([2H])([2H])C([2H])([2H])OC(=O)c1c(-c2c(F)cccc2Cl)noc1-c1cnn(-c2cccc(Cl)c2)c1C(F)(F)F [Example 100/1],< 10,–
"[2H]c1nc(-c2c(-c3c(F)cccc3Cl)noc2-c2cnn(-c3cccc(Cl)c3)c2C(F)(F)F)nc([2H])c1[2H] [Example 103, 3-(2-Chloro-6-fluorophenyl)-5-(1-(3-chlorophenyl)-5-(trifluoromethyl)-1H-pyrazol-4-yl)-4-(pyrimidin-2-yl-d3)isoxazole]",10 to 100,–
"[2H]c1c([2H])c(F)c(-c2noc(-c3cnn(-c4cccc(Cl)c4)c3C(F)(F)F)c2C(=O)OC)c(Cl)c1[2H] [Example 104, Methyl 3-(2-chloro-6-fluorophenyl-3,4,5-d3)-5-(1-(3-chlorophenyl)-5-(trifluoro-methyl)-1H-pyrazol-4-yl)isoxazole-4-carboxylate]",10 to 100,–
"[2H]c1cc([2H])c(-n2ncc(-c3onc(-c4c(F)cccc4Cl)c3C(=O)OC)c2C(F)(F)F)c([2H])c1Cl [Example 105, Methyl 3-(2-chloro-6-fluorophenyl)-5-(1-(3-chlorophenyl-2,4,6-d3)-5-(trifluoro-methyl)-1H-pyrazol-4-yl)isoxazole-4-carboxylate]",< 10,–
"[2H]c1cc([2H])c(-n2ncc(-c3onc(-c4c(F)cccc4Cl)c3-c3nccs3)c2C(F)(F)F)c([2H])c1Cl [Example 106, 3-(2-Chloro-6-fluorophenyl)-5-(1-(3-chlorophenyl-2,4,6-d3)-5-(trifluoromethyl)-1H-pyrazol-4-yl)-4-(thiazol-2-yl)isoxazole]",< 10,–
"[2H]c1nc(-c2c(-c3c(F)cccc3Cl)noc2-c2cnn(-c3cccc(Cl)c3)c2C(F)(F)F)sc1[2H] [Example 107, 3-(2-Chloro-6-fluorophenyl)-5-(1-(3-chlorophenyl)-5-(trifluoromethyl)-1H-pyrazol-4-yl)-4-(thiazol-2-yl-d2)isoxazole]",10 to 100,half-life [4]: 1.6 h; AUC(0-t) ([4]; read-out: AUC0-8 h): 871 ng·h/mL
"[2H]C([2H])(OC(F)(F)F)c1c(-c2c(F)cccc2Cl)noc1-c1cnn(-c2cccc(Cl)c2)c1C(F)(F)F [Example 109, 3-(2-Chloro-6-fluorophenyl)-5-(1-(3-chlorophenyl)-5-(trifluoromethyl)-1H-pyrazol-4-yl)-4-((trifluoromethoxy)methyl-d2)isoxazole]",10 to 100,–
[2H]C([2H])(OC1CC1)c1c(-c2c(F)cc(F)cc2Cl)noc1-c1cnn(-c2cccc(Cl)c2)c1C(F)(F)F [Example 111/1],100 to 1000,–
